The target in the experiment is T1, recombinant human androgen receptor (hAR) (Homo sapiens, UniProt P10275).
T1 construct: made in house; host or cells: baculovirus/Sf9 insect cells (crude extract)
T1 sequence (P10275 1-920): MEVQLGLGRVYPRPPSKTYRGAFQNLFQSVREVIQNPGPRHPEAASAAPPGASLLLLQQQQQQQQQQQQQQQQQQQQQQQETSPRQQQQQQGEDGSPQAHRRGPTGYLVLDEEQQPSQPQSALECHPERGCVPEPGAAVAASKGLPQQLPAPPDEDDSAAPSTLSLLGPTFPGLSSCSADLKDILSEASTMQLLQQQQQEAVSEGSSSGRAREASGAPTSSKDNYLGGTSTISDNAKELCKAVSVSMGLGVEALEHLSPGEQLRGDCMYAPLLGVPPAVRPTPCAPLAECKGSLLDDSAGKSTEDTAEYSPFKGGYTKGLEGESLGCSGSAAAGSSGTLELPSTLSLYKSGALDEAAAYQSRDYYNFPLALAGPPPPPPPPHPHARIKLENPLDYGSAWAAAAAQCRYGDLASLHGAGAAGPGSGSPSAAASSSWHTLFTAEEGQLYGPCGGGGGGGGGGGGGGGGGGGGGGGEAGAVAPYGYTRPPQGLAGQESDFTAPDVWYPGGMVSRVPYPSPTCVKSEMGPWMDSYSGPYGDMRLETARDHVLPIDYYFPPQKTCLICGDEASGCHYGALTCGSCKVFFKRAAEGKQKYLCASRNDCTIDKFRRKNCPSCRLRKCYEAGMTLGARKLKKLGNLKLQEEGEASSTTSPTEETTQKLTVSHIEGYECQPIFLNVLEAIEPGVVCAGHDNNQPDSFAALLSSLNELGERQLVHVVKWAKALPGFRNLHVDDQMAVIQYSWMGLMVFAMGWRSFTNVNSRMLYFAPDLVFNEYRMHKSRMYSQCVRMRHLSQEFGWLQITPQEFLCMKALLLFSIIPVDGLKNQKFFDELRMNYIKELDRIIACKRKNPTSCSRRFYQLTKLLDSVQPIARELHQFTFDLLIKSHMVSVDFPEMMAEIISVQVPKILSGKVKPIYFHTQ
Nature of the experiment: Human androgen receptor binding analysis (3H-DHT competitive binding). On the procedure: The following is a brief description of the assay that determines the affinity of a compound for the recombinant human androgen receptor (hAR). Competitive binding analysis is performed on baculovirus/Sf9 generated hAR extracts in the presence or absence of differing concentrations of drug and a fixed concentration of ^3H-dihydrotestosterone (^3H-DHT) as tracer. This binding assay method is a modification of a protocol previously described (Chang, et. al. J. Steroid Biochem. 20(1):11-17 1984). Briefly, progressively decreasing concentrations of compounds are incubated in the presence of hAR extract (Chang et al. P.N.A.S. Vol. 89, pp. 5546-5950, 1992), hydroxylapatite and 1 nM ^3H-DHT for one hour at 4° C. Subsequently, the binding reactions are washed three times to completely remove excess unbound ^3H-DHT. hAR bound ^3H-DHT levels are determined in the presence of compounds (=competitive binding) and compared to levels bound when no competitor is present (=maximum binding). Compound binding affinity to the hAR is expressed as the concentration of compound at which one half of the maximum binding is inhibited (the IC50).

Drawing on patent publication US20080045504A1, “Benzonitrile Derivatives to Treat Musculoskeletal Frailty” (PFIZER PRODUCTS INC., priority 2004, published 2008), this text covers IC50 for 39 molecules.

Structures are written as SMILES.

`CC[C@H]1CCCCN1c1cc(F)c(C#N)c(F)c1` [Example 2, 4-(2-(S)-Ethyl-piperidin-1-yl)-2,6-difluoro-benzonitrile]: the IC50 (usually the concentration that inhibits the measured activity by half) came out at 1.15 nM.
For `CC[C@H]1CCCCN1c1ccc(C#N)c(Cl)c1` [Example 3, 2-Chloro-4-(2-(S)-ethyl-piperidin-1-yl)-benzonitrile] the value was 3.67 nM; for `CC[C@H]1CCCCN1c1ccc(C#N)c(C#N)c1` [Example 4, 4-(2-(S)-Ethyl-piperidin-1-yl)-phthalonitrile], 7.75 nM.
The figure for `CCC1CCCCN1c1ccc(C#N)c(C#N)c1` (stereo not drawn) [Example 5, 4-(2-Ethyl-piperidin-1-yl)-phthalonitrile] is 5.35 nM; for `CCC1CCCCN1c1ccc(C#N)c(C(F)(F)F)c1` (stereo not drawn) [Example 6, 4-(2-Ethyl-piperidin-1-yl)-2-trifluoromethyl-benzonitrile] it is 1.83 nM.
For `CC[C@@H](C)N(CC)c1ccc(C#N)c(Cl)c1` [Example 8, 4-((R)-sec-Butyl-ethyl-amino)-2-chloro-benzonitrile] the value was 1.4 nM.
For `CC[C@@H](C)N(C)c1ccc(C#N)c(Cl)c1` [Example 9, 4-((R)-sec-Butyl-methyl-amino)-2-chloro-benzonitrile], the IC50 was 3.63 nM.
For `CCCN(c1ccc(C#N)c(Cl)c1)[C@H](C)CC` [Example 10, 4-((R)-sec-Butyl-propyl-amino)-2-chloro-benzonitrile] the value was 3.28 nM; for `CCCN(c1ccc(C#N)c(C#N)c1)[C@H](C)CC` [Example 11, 4-((R)-sec-Butyl-propyl-amino)-phthalonitrile], 8 nM.
For `CC[C@@H](C)N(CC)c1ccc(C#N)c(C(F)(F)F)c1` [Example 12, 4-((R)-sec-Butyl-ethyl-amino)-2-trifluoromethyl-benzonitrile] the value was 3.21 nM; for `CC[C@@H](C)N(C)c1ccc(C#N)c(C#N)c1` [Example 13, 4-((R)-sec-Butyl-methyl-amino)-phthalonitrile], 2.9 nM.
For `CC[C@@H](C)N(CC)c1ccc(C#N)c(C#N)c1` [Example 14] the value was 3.8 nM; for `CCCN(CCC)c1ccc(C#N)c(C(F)(F)F)c1` [Example 15, 4-Dipropylamino-2-trifluoromethyl-benzonitrile], 1.68 nM.
As for `CCN(c1ccc(C#N)c(C#N)c1)C(C)C` [Example 16, 4-(Ethyl-isopropyl-amino)-phthalonitrile], the 50% inhibitory concentration (IC50) stood at 3.06 nM.
For `CCC(C)N(C)c1ccc(C#N)c(C(F)(F)F)c1` (stereo not drawn) [Example 17, 4-(sec-Butyl-methyl-amino)-2-trifluoromethyl-benzonitrile] the value was 3.99 nM.
The figure for `CCCN(c1ccc(C#N)c(C#N)c1)C(C)CC` (stereo not drawn) [Example 18, 4-(sec-Butyl-propyl-amino)-phthalonitrile] is 2.49 nM; for `CCCN(CCC)c1ccc(C#N)c(C#N)c1` [Example 19, 4-Dipropylamino-phthalonitrile] it is 6.44 nM.
In the case of `CCN(CC)c1ccc(C#N)c(C(F)(F)F)c1` [Example 20, 4-Diethylamino-2-trifluoromethyl-benzonitrile], the IC50 was 2.62 nM.
As for `CCC(C)N(CC)c1ccc(C#N)c(C(F)(F)F)c1` (stereo not drawn) [Example 21, 4-(sec-Butyl-ethyl-amino)-2-trifluoromethyl-benzonitrile], the IC50 stood at 1.71 nM.
For `CCCN(CC)c1ccc(C#N)c(Cl)c1` [Example 22, 2-Chloro-4-(ethyl-propyl-amino)-benzonitrile] the value was 5.4 nM; for `CC(C)N(C)c1ccc(C#N)c(Cl)c1` [Example 23, 2-Chloro-4-(isopropyl-methyl-amino)-benzonitrile], 4.21 nM.
The figure for `CC(C)[C@@H](C)N(C)c1ccc(C#N)c(Cl)c1` [Example 25, 2-Chloro-4-[(1-(R), 2-dimethyl-propyl)-methyl-amino]-benzonitrile] is 45.6 nM; for `CC[C@H](C)N(C)c1ccc(C#N)c(C(F)(F)F)c1` [Example 26] it is 5.47 nM.
For `CC[C@H](C)N(CC)c1ccc(C#N)c(C(F)(F)F)c1` [Example 27, 4-((S)-sec-Butyl-ethyl-amino)-2-trifluoromethyl-benzonitrile], the IC50 stood at 7.32 nM.
For the molecule `CC1CCCN1c1ccc(C#N)c(C(F)(F)F)c1` (stereo not drawn) [Example 28, 4-(2-Methyl-pyrrolidin-1-yl)-2-trifluoromethyl-benzonitrile], the IC50 is 1.5 nM.
`CCCC1CCCCN1c1ccc(C#N)c(C(F)(F)F)c1` (stereo not drawn) [Example 30, 4-(2-Propyl-piperidin-1-yl)-2-trifluoromethyl-benzonitrile]: the IC50 was 2.33 nM.
For `CCC1CC(CO)CCN1c1ccc(C#N)c(C(F)(F)F)c1` (stereo not drawn) [Example 31, 4-(2-Ethyl-4-hydroxymethyl-piperidin-1-yl)-2-trifluoromethyl-benzonitrile] the value was 9.63 nM; for `CCCN(c1ccc(C#N)c(C(F)(F)F)c1)[C@H](C)CC` [Example 32, 4-((R)-sec-Butyl-propyl-amino)-2-trifluoromethyl-benzonitrile], 5.97 nM; for `C=CCN(C)c1ccc(C#N)c(C(F)(F)F)c1` [Example 33, 4-(Allyl-methyl-amino)-2-trifluoromethyl-benzonitrile], 3.82 nM.
The figure for `CC1CCCCN1c1ccc(C#N)c(C(F)(F)F)c1` (stereo not drawn) [Example 34, 4-(2-Methyl-piperidin-1-yl)-2-trifluoromethyl-benzonitrile] is 24.8 nM.
`CCOC[C@H]1CCCN1c1ccc(C#N)c(C(F)(F)F)c1` [Example 35, 4-(2(R)-(Ethoxy-methyl)-pyrrolidin-1-yl)-2-trifluoromethyl-benzonitrile]: the IC50 was found to be 2.07 nM.
For `N#Cc1ccc(N2CCCCC2CCO)cc1C(F)(F)F` (stereo not drawn) [Example 36, 4-(2-(2-Hydroxyethyl)-piperidin-1-yl)-2-trifluoromethyl-benzonitrile] the value was 27.7 nM.
`COC[C@H]1CCCN1c1ccc(C#N)c(C(F)(F)F)c1` [Example 37, 4-(2(R)-(Methoxy-methyl)-pyrrolidin-1-yl)-2-trifluoromethyl-benzonitrile]: the IC50 amounted to 10.1 nM.
As to `CCCCCN(CC)c1ccc(C#N)c(C(F)(F)F)c1` [Example 38, 4-(Ethyl-pentyl-amino)-2-trifluoromethyl-benzonitrile], the IC50 amounted to 11.6 nM.
For `CCCCN(CCC)c1ccc(C#N)c(C(F)(F)F)c1` [Example 39, 4-(Butyl-propyl-amino)-2-trifluoromethyl-benzonitrile] the value was 2 nM; for `CC(C)N(C)c1ccc(C#N)c(C(F)(F)F)c1` [Example 40, 4-(Isopropyl-methyl-amino)-2-trifluoromethyl-benzonitrile], 0.99 nM; for `CCCCCN(CCC)c1ccc(C#N)c(C(F)(F)F)c1` [Example 41, 4-(Pentyl-propyl-amino)-2-trifluoromethyl-benzonitrile], 9.39 nM.
For `N#Cc1ccc(N2CCCCC2CO)cc1C(F)(F)F` (stereo not drawn) [Example 42, 4-(2-Hydroxymethyl-piperidin-1-yl)-2-trifluoromethyl-benzonitrile] the value was 15.3 nM.
The figure for `CCCCN(CC)c1ccc(C#N)c(C(F)(F)F)c1` [Example 43, 4-(Butyl-ethyl-amino)-2-trifluoromethyl-benzonitrile] is 7.58 nM.
